The term Kd denotes the constant that tells how readily two partners part at equilibrium.

Anti-Factor Xa activity and Kd data for 2 molecules are collected here from ChEMBL document CHEMBL1130453, “Synthesis and biological activity of a new anti-factor Xa pentasaccharide with a C-interglycosidic bond” (Bioorg Med Chem Lett, 1997).

For test [1], the target named is Coagulation factor X (Homo sapiens) (UniProt P00742). Briefly: Anti-factor Xa activity by amidolytic method.
For the next test, the target named is Antithrombin-III (Homo sapiens, UniProt P01008). Briefly: In vitro binding affinity against antithrombin III (AT III) was determined by fluorescence spectroscopy.
Antithrombin-III, sequence (P01008 whole entry): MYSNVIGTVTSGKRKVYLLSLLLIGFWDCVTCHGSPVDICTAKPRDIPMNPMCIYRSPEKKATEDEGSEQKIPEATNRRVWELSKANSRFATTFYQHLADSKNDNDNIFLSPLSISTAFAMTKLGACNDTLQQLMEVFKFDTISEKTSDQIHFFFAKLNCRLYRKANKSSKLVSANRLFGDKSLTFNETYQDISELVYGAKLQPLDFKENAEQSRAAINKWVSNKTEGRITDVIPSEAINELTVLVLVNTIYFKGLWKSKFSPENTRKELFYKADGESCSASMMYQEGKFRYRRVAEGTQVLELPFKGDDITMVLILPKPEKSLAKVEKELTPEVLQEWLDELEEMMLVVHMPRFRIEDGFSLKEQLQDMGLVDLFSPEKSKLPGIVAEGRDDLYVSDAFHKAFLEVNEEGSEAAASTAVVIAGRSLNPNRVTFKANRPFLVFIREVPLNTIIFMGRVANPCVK

Coagulation factor X (Homo sapiens), sequence (P00742 41-179 limits assumed): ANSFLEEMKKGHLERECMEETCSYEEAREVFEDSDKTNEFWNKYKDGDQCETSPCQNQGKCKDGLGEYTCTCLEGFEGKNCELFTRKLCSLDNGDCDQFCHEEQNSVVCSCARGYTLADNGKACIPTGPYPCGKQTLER
Coagulation factor X (Homo sapiens), sequence (P00742 235-488 limits assumed): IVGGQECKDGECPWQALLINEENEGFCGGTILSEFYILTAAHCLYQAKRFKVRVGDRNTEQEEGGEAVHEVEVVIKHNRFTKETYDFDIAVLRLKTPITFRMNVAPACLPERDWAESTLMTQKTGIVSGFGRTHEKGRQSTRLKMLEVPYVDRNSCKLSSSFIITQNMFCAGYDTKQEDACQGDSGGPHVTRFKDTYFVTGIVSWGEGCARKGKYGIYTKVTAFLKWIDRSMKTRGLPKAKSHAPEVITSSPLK

Molecule `CO[C@H]1O[C@@H](COS(=O)(=O)O)[C@@H](O[C@@H]2O[C@@H](C(=O)O)[C@H](O[C@H]3O[C@@H](COS(=O)(=O)O)[C@@H](O[C@@H]4O[C@@H](C(=O)O)[C@@H](O[C@H]5O[C@@H](COS(=O)(=O)O)[C@@H](OC)[C@H](OC)[C@@H]5OC)[C@H](OC)[C@@H]4OC)[C@H](OS(=O)(=O)O)[C@@H]3OS(=O)(=O)O)[C@H](OC)[C@H]2OC)[C@H](OS(=O)(=O)O)[C@@H]1OS(=O)(=O)O` showed an Anti-Factor Xa activity in test [1] of 1180 U/mg.
In turn, `CO[C@H]1O[C@@H](COS(=O)(=O)O)[C@@H](O[C@@H]2O[C@@H](C(=O)O)[C@H](O[C@H]3O[C@@H](COS(=O)(=O)O)[C@@H](O[C@@H]4O[C@@H](C(=O)O)[C@@H](C[C@H]5O[C@@H](COS(=O)(=O)O)[C@@H](OC)[C@H](OC)[C@@H]5OC)[C@H](OC)[C@@H]4OC)[C@H](OS(=O)(=O)O)[C@@H]3OS(=O)(=O)O)[C@H](OC)[C@H]2OC)[C@H](OS(=O)(=O)O)[C@@H]1OS(=O)(=O)O` returned a Kd on Antithrombin-III of 2.8 nM. The molecule further displayed an Anti-Factor Xa activity in test [1] of 880 U/mg.
